Data from the NIST ThermoML archive (doi:10.1016/j.jct.2008.05.014).

Assay: xn = mol fraction of the nth substance listed
Conditions: Liquid; for speed of sound: Pulse-echo method

CCCCCCCCCCCC [dodecane] + CCCCCCC
Conditions | mass density [kg/m3] | speed of sound [m/s]
303.17 K, 101 kPa, x2 = 0.2001 | – | 1238.5
308.11 K, 30390 kPa, x2 = 0.9391 | – | 1298.5
308.11 K, 30390 kPa, x2 = 0.97 | – | 1294.9
308.11 K, 45590 kPa, x2 = 0.9391 | – | 1376.1
308.11 K, 45590 kPa, x2 = 0.97 | – | 1373
308.11 K, 60790 kPa, x2 = 0.9391 | – | 1445.9
308.11 K, 60790 kPa, x2 = 0.97 | – | 1443.2
308.11 K, 75990 kPa, x2 = 0.9391 | – | 1509.5
308.11 K, 75990 kPa, x2 = 0.97 | – | 1507.2
308.11 K, 91180 kPa, x2 = 0.9391 | – | 1568
308.11 K, 101320 kPa, x2 = 0.4999 | – | 1649.5
308.11 K, 101320 kPa, x2 = 0.9391 | – | 1605.3
308.11 K, 101320 kPa, x2 = 0.97 | – | 1603.3
308.12 K, 101 kPa, x2 = 0 | – | 1240.2
308.12 K, 101 kPa, x2 = 0.6 | – | 1164.6
308.12 K, 101 kPa, x2 = 0.8995 | – | 1109.6
308.12 K, 15200 kPa, x2 = 0.9391 | – | 1209.5
308.12 K, 15200 kPa, x2 = 0.97 | – | 1205.4
308.12 K, 45590 kPa, x2 = 0.1014 | – | 1468.2
308.12 K, 45590 kPa, x2 = 0.4999 | – | 1432.7
308.12 K, 60790 kPa, x2 = 0.1014 | – | 1531
308.12 K, 75990 kPa, x2 = 0.1014 | – | 1589.4
308.12 K, 91180 kPa, x2 = 0.1014 | – | 1643.8
308.12 K, 91180 kPa, x2 = 0.4999 | – | 1614.6
308.12 K, 91180 kPa, x2 = 0.97 | – | 1565.8
308.12 K, 101320 kPa, x2 = 0.1014 | – | 1677.8
308.13 K, 101 kPa, x2 = 0.3002 | – | 1207.1
308.13 K, 101 kPa, x2 = 0.7002 | – | 1147.7
308.13 K, 101 kPa, x2 = 0.8 | – | 1129.6
308.13 K, 15200 kPa, x2 = 0.1014 | – | 1321.5
308.13 K, 15200 kPa, x2 = 0.4999 | – | 1278.8
308.13 K, 30390 kPa, x2 = 0.1014 | – | 1398.8
308.13 K, 30390 kPa, x2 = 0.3007 | – | 1379.7
308.13 K, 30390 kPa, x2 = 0.4999 | – | 1360.2
308.13 K, 30390 kPa, x2 = 0.5003 | – | 1360.2
308.13 K, 30390 kPa, x2 = 0.7007 | – | 1334.7
308.13 K, 45590 kPa, x2 = 0.3007 | – | 1450.6
308.13 K, 45590 kPa, x2 = 0.7007 | – | 1409.4
308.13 K, 60790 kPa, x2 = 0.4999 | – | 1498.1
308.13 K, 60790 kPa, x2 = 0.5003 | – | 1498.2
308.13 K, 60790 kPa, x2 = 0.7007 | – | 1476.6
308.13 K, 75990 kPa, x2 = 0 | – | 1596.8
308.13 K, 75990 kPa, x2 = 0.4999 | – | 1558.1
308.13 K, 75990 kPa, x2 = 0.5003 | – | 1558.2
308.13 K, 75990 kPa, x2 = 0.7007 | – | 1537.9
308.13 K, 91180 kPa, x2 = 0 | – | 1650.9
308.13 K, 91180 kPa, x2 = 0.3007 | – | 1629.5
308.13 K, 91180 kPa, x2 = 0.5003 | – | 1614.7
308.13 K, 91180 kPa, x2 = 0.7007 | – | 1595.3
308.13 K, 101320 kPa, x2 = 0.3007 | – | 1664.1
308.13 K, 101320 kPa, x2 = 0.5003 | – | 1649.8
308.13 K, 101320 kPa, x2 = 0.7007 | – | 1631.3
308.14 K, 101 kPa, x2 = 0.3996 | – | 1194.1
308.14 K, 15200 kPa, x2 = 0 | – | 1331
308.14 K, 15200 kPa, x2 = 0.3007 | – | 1300.4
308.14 K, 15200 kPa, x2 = 0.5003 | – | 1278.7
308.14 K, 15200 kPa, x2 = 0.7007 | – | 1250.1
308.14 K, 30390 kPa, x2 = 0 | – | 1407.6
308.14 K, 45590 kPa, x2 = 0 | – | 1476.3
308.14 K, 45590 kPa, x2 = 0.5003 | – | 1432.6
308.14 K, 60790 kPa, x2 = 0 | – | 1538.6
308.14 K, 60790 kPa, x2 = 0.3007 | – | 1515
308.14 K, 75990 kPa, x2 = 0.3007 | – | 1574.3
308.15 K, 101 kPa, x2 = 0 | 738.031 | –
308.15 K, 101 kPa, x2 = 0.0991 | 733.816 | –
308.15 K, 101 kPa, x2 = 0.1007 | – | 1230
308.15 K, 101 kPa, x2 = 0.2001 | – | 1219
308.15 K, 101 kPa, x2 = 0.2008 | 729.111 | –
308.15 K, 101 kPa, x2 = 0.2998 | 724.073 | –
308.15 K, 101 kPa, x2 = 0.3996 | 718.583 | –
308.15 K, 101 kPa, x2 = 0.5 | 712.522 | –
308.15 K, 101 kPa, x2 = 0.5002 | – | 1179.8
308.15 K, 101 kPa, x2 = 0.6 | 705.898 | –
308.15 K, 101 kPa, x2 = 0.7005 | 698.575 | –
308.15 K, 101 kPa, x2 = 0.7995 | 690.497 | –
308.15 K, 101 kPa, x2 = 0.8486 | 686.148 | –
308.15 K, 101 kPa, x2 = 0.8988 | 681.426 | –
308.15 K, 101 kPa, x2 = 0.9498 | 676.348 | –
308.15 K, 15200 kPa, x2 = 0.8496 | – | 1227.4
308.15 K, 30390 kPa, x2 = 0.8496 | – | 1314.4
308.15 K, 45590 kPa, x2 = 0.8496 | – | 1390.8
308.15 K, 60790 kPa, x2 = 0.8496 | – | 1459.7
308.15 K, 75990 kPa, x2 = 0.8496 | – | 1522.3
308.15 K, 91180 kPa, x2 = 0.8496 | – | 1580.4
308.15 K, 101320 kPa, x2 = 0.8496 | – | 1617.2
313.08 K, 15200 kPa, x2 = 0.9391 | – | 1191.3
313.08 K, 30390 kPa, x2 = 0.9391 | – | 1281.8
313.08 K, 45590 kPa, x2 = 0.9391 | – | 1360.6
313.08 K, 60790 kPa, x2 = 0.9391 | – | 1431.4
313.08 K, 75990 kPa, x2 = 0.9391 | – | 1495.6
313.08 K, 91180 kPa, x2 = 0.9391 | – | 1554.5
313.08 K, 101320 kPa, x2 = 0.4999 | – | 1636.7
313.08 K, 101320 kPa, x2 = 0.9391 | – | 1592.1
313.09 K, 30390 kPa, x2 = 0.97 | – | 1278.1
313.09 K, 45590 kPa, x2 = 0.97 | – | 1357.5
313.09 K, 60790 kPa, x2 = 0.4999 | – | 1483.8
313.09 K, 60790 kPa, x2 = 0.97 | – | 1428.5
313.09 K, 75990 kPa, x2 = 0.4999 | – | 1544.2
313.09 K, 75990 kPa, x2 = 0.97 | – | 1493.1
313.09 K, 91180 kPa, x2 = 0.4999 | – | 1601.2
313.09 K, 91180 kPa, x2 = 0.97 | – | 1552.3
313.09 K, 101320 kPa, x2 = 0.97 | – | 1589.9
313.1 K, 101 kPa, x2 = 0 | – | 1221
313.1 K, 101 kPa, x2 = 0.6 | – | 1144.4
313.1 K, 101 kPa, x2 = 0.8995 | – | 1088.5
313.1 K, 15200 kPa, x2 = 0.4999 | – | 1261.2
313.1 K, 15200 kPa, x2 = 0.97 | – | 1186.9
313.1 K, 30390 kPa, x2 = 0.4999 | – | 1344.1
313.1 K, 45590 kPa, x2 = 0.4999 | – | 1417.6
313.1 K, 60790 kPa, x2 = 0.7007 | – | 1462.1
313.1 K, 91180 kPa, x2 = 0.7007 | – | 1581.9
313.1 K, 101320 kPa, x2 = 0.1014 | – | 1665
313.11 K, 101 kPa, x2 = 0.3002 | – | 1187.6
313.11 K, 101 kPa, x2 = 0.3996 | – | 1174.4
313.11 K, 101 kPa, x2 = 0.7002 | – | 1127.3
313.11 K, 15200 kPa, x2 = 0.1014 | – | 1304
313.11 K, 15200 kPa, x2 = 0.3007 | – | 1282.9
313.11 K, 15200 kPa, x2 = 0.7007 | – | 1232.2
313.11 K, 30390 kPa, x2 = 0.1014 | – | 1382.7
313.11 K, 30390 kPa, x2 = 0.3007 | – | 1363.6
313.11 K, 30390 kPa, x2 = 0.5003 | – | 1344.2
313.11 K, 30390 kPa, x2 = 0.7007 | – | 1318.2
313.11 K, 45590 kPa, x2 = 0.1014 | – | 1453
313.11 K, 45590 kPa, x2 = 0.5003 | – | 1417.5
313.11 K, 45590 kPa, x2 = 0.7007 | – | 1393.8
313.11 K, 60790 kPa, x2 = 0.1014 | – | 1516.7
313.11 K, 60790 kPa, x2 = 0.5003 | – | 1483.9
